Experimental data reported in publication PMC10934500, “Exploring the Anti-Diabetic Potential of Quercetagitrin through Dual Inhibition of PTPN6 and PTPN9” (Nutrients, 2024).
pIC50: −log10 of the molar value.

Target: PTPN6 (Homo sapiens, UniProt P29350)
Test: DiFMUP fluorescence phosphatase assay with recombinant enzyme purified from E. coli
Assay type: biochemical

Chain of PTPN6 (P29350 whole entry): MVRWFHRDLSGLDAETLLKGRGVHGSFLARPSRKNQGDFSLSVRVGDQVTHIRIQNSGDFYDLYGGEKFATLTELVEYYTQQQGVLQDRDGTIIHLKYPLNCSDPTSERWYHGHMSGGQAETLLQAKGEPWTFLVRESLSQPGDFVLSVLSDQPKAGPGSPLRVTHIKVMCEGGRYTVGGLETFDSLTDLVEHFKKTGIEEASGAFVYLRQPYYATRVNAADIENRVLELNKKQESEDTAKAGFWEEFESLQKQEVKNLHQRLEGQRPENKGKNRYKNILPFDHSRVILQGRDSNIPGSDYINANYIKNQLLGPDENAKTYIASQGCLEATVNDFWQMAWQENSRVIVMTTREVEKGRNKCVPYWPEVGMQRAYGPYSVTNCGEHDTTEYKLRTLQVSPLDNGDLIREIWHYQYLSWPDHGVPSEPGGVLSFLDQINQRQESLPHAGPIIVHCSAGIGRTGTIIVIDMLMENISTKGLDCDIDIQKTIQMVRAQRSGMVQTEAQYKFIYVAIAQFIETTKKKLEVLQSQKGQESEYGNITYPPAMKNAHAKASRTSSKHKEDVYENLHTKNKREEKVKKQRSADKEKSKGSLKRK

- pIC50: 6.00
SMILES: O=c1c(O)c(-c2ccc(O)c(O)c2)oc2cc(O[C@@H]3O[C@H](CO)[C@@H](O)[C@H](O)[C@H]3O)c(O)c(O)c12 [QG, quercetagitrin]
